Assay results as given in article PMC11313944, “Ethyl Acetate Fraction from Eleutherococcus divaricatus Root Extract as a Promising Source of Compounds with Anti-Hyaluronidase, Anti-Tyrosinase, and Antioxidant Activity but Not Anti-Melanoma Activity” (Molecules, 2024).
Marks after values point to notes of the source that are not given here. Blank lines part the entries; values can stand above or below the compound they belong to.

How the values were obtained:
[1] = target: hyaluronidase from bovine testes (bHYAL) (Bos taurus, UniProt Q2YDK3); assay: Bovine hyaluronidase inhibition assay (CTAB turbidimetric); format: biochemical
hyaluronidase from bovine testes (bHYAL), sequence (Q2YDK3 entry or part of it): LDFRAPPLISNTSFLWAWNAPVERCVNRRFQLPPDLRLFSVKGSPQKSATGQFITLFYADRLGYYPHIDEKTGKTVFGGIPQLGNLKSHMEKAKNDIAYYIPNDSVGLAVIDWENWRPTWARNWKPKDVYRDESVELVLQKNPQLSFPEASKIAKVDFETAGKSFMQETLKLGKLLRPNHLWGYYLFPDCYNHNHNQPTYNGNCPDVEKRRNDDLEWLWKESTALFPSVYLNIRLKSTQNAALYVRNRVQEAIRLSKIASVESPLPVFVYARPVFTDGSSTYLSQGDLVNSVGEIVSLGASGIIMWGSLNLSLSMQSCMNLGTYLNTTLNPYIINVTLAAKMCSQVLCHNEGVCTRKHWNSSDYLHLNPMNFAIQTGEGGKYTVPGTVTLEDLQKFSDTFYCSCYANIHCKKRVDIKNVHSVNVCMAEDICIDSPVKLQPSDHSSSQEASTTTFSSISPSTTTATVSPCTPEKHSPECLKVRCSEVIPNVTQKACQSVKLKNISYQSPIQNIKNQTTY
Method: Bovine hyaluronidase inhibitor assays were conducted in 96-well plates, following a modified method originally described by Di Ferrante and Studzińska-Sroka. The activity of the compounds or extracts was determined based on the precipitation of non-hydrolyzed hyaluronic acid using cetyltrimethylammonium bromide (CTAB). A 10% water solution of DMSO was used to dissolve the extract. Then, 15 μL of extracts at concentrations of 10.0, 1.0, and 0.1 mg/mL in the well were mixed with an acetate buffer (15 μL, pH = 5.35), an incubation buffer (25 μL, pH = 5.35, 0.01% BSA, 0.45% NaCl), and an enzyme solution (25 μL, 30 U/mL in the incubation buffer). This mixture was incubated at 37 °C for 10 min. Following this, a hyaluronic acid solution (25 μL, 0.3 mg/mL in an acetate buffer with a pH of 5.35) was added. The plates were then incubated for an additional 45 min at 37 °C. After incubation, non-hydrolyzed hyaluronic acid was precipitated by adding 2.5% CTAB (200 μL). The plates were then maintained at 25 °C for 10 min. The intensity of the complex formation was measured at a wavelength of 600 nm. The presence of inhibition was determined by measuring the absorbance of the solution without the inhibitor (AC) and the enzyme (AT). All samples were tested in triplicate. The inhibition of hyaluronidase was calculated using a specific equation, with aescin used as a standard. INHHYAL=AS−AC/AT−AC∗100%
(§1) AS—absorbance of the HA + sample + enzyme;
(§2) AC—absorbance of the HA + enzyme;
(§3) AT—absorbance of the HA + sample.

[2] = tested on: mushroom tyrosinase (mTYR); assay: Tyrosinase inhibition assay (L-tyrosine substrate); format: biochemical; conditions: phenolic acid and eleutheroside standards (Table 6)
Method: Tyrosinase inhibitor assays were conducted in 96-well plates using a modified method originally described by Wróbel-Biedrawa. The process involves the conversion of […] to L-DOPA, then to DOPA-quinone, facilitated by the tyrosinase enzyme. This reaction results in the solution turning brown. In brief, 10 μL of the sample (concentrations of 10.0, 1.0, and 0.1 mg/mL in 10% DMSO) was combined with 150 μL of a phosphoric buffer containing mushroom tyrosinase (pH = 6.88, 100 U/mL). This mixture was then incubated for 10 min at room temperature. […] Following incubation, L-tyrosine (0.3 mg/mL) was added to each well, and the absorbance was measured at 492 nm (using a kinetic model every 5 min). Two time points (t1 and t2) were selected within the linear range of the graph. All samples were tested in triplicate. […] INHTYR=AC−AS/AC∗100%
AS—the difference in absorbance between times t2 and t1 for the sample;
AC—the difference in absorbance between times t2 and t1 for the positive control.

[3] = ABTS free radical scavenging activity; conditions: 30 min incubation
Method: The ABTS free radical scavenging test was conducted following the method outlined by Wu et al. A working solution of ABTS+ was prepared by combining 10 mL of ABTS (7 mM in H2O) with 10 mL of potassium persulfate (2.45 mM in H2O). This mixture was then left to incubate in the dark for 12 h. The ABTS solution was subsequently diluted with water until it reached an absorbance of 0.700 ± 0.03 at 405 nm. Then, volumes of 10 μL of extracts at concentrations of 1 mg/mL, 0.1 mg/mL, and 0.01 mg/mL (dissolved in MeOH) were combined with 190 μL of the ABTS+ solution and incubated for 30 min. The absorbance at 405 nm was measured after the incubation period. Butylated hydroxyanisole (BHA) was used as a control. The antioxidant activity was then calculated using a specific equation. INHABTS=AC−AS/AC∗100%
AS—the absorbance for sample + ABTS;
AC—the absorbance without sample + ABTS.

[4] = DPPH free radical scavenging activity; conditions: 60 min incubation
Method: The DPPH free radical scavenging test was conducted according to the procedure established by Naseer et al.. A working solution of DPPH• was prepared by dissolving 24 mg of DPPH in 100 mL of […]. This solution was further diluted with methanol until it reached an absorbance of 0.900 ± 0.03 at 515 nm. Subsequently, volumes of 10 μL of extracts at concentrations of 1 mg/mL, 0.1 mg/mL, and 0.01 mg/mL (dissolved in MeOH) were combined with 190 μL of the DPPH• solution and allowed to incubate for 60 min. The absorbance at 515 nm was measured post incubation. Butylated hydroxyanisole (BHA) was used as a control. The antioxidant activity was then calculated using a specified equation. INHDPPH=AC−AS/AC∗100%
AS—the absorbance for sample + DPPH;
AC—the absorbance without sample + DPPH.

[5] = tested on: SK-MEL-30 melanoma cells; assay: MTT viability assay, SK-MEL-30; format: cell-based, human
Method: (§4) The following human melanoma cell lines were used in this study: A375 (ATCC:CRL-1619), UACC-647 (CVCL_4049), and SK-MEL-30 (DSMZ:ACC 151). A375 cells were maintained in Dulbecco’s Modified Eagle’s Medium (DMEM). UACC-647 and SK-MEL-30 were cultured in RPMI-1640. All basal media were supplemented with fetal bovine serum (FBS) at a final concentration of 10%. The control used in the study was BJ foreskin fibroblasts (ATCC:CRL-2522). To facilitate the growth of BJ cells, Eagle’s Minimum Essential Medium (EMEM) with 10% FBS was utilized. Tissue culture-treated Petri dishes were used to support all cell lines. A temperature of 37 °C and 5% CO2 were maintained routinely. The cells were expanded for a few passages, then seeded onto 96-well plates, where they were left to attach overnight. The following day, the cells were exposed to E. divaricatus fractionated extracts at descending concentrations, starting from 200 µg/mL, or to a vehicle (DMSO, 0.1%). Alternatively, the cells were treated with doxorubicin (DOX) to independently determine the inhibitory concentrations causing the 10, 50, and 90% levels of maximal inhibition (IC10, IC50, and IC90, respectively) of cellular viability for each melanoma cell line. Then, the melanoma cells were treated with the DOX at IC10, IC50, or IC90, followed by the addition of the fractions of the extracts from E. divaricatus at a dose of 200 µg/mL. Upon 24 h of incubation, the viability of the cells was assessed by MTT assay.
(§5) Dose–response curves were obtained using GraphPad Prism 8.4.3 software running on a personal computer. Experimental datapoints were fitted to the sigmoidal equation, and the IC50 value was calculated. IC10 and IC90 values were computed using a web tool available at https://www.graphpad.com/ accessed on 20 May 2023.

[6] = tested on: A375 melanoma cells; assay: MTT viability assay, A375; format: cell-based, human
Method: as §4, §5

[7] = tested on: UACC-647 melanoma cells; assay: MTT viability assay, UACC-647; format: cell-based, human
Method: as §4, §5

[8] = Iron (II) ion chelation assay (ferrozine); conditions: results for 1 mg/mL
Method: The ion chelation assay was conducted using the method proposed by Li et al. [54]. Initially, 100 μL of extract at a concentration of 1.0 mg/mL was combined with methanol (150 μL, MeOH) and iron(II) chloride (5 μL, FeCl2) at a concentration of 2 mM. Subsequently, 5 μL of ferrozine was added at a concentration of 5 mM. Following a period of incubation, the absorbance was measured at a wavelength of 510 nm. The degree of chelation was then calculated using a specific equation, with ethylenediaminetetraacetic acid (EDTA) serving as a positive control. INHFe^2+=AC−AS/AC∗100%
AS—the absorbance for sample + ferrozine + FeCl2;
AC—the absorbance without sample + ferrozine + FeCl2.

[9] = target: hyaluronidase; conditions: cited from earlier work
[10] = tested on: MCF-7 human breast adenocarcinoma cell line; design: method as in PMID 25918798; conditions: read-out: IC50 antiproliferative; cited from earlier work
[11] = tested on: human hyaluronidase (hHYAL); conditions: cited from earlier work
[12] = target: T1, human serum hyaluronidase (hHYAL) (Homo sapiens, UniProt Q12794); assay: Human serum hyaluronidase inhibition, serum of children with acute lymphoblastic leukemia; format: biochemical; conditions: mean over sera of 5 patients
T1 construct: from tissue; host or cells: serum of children diagnosed with acute lymphoblastic leukemia
T1 sequence (Q12794 22-435): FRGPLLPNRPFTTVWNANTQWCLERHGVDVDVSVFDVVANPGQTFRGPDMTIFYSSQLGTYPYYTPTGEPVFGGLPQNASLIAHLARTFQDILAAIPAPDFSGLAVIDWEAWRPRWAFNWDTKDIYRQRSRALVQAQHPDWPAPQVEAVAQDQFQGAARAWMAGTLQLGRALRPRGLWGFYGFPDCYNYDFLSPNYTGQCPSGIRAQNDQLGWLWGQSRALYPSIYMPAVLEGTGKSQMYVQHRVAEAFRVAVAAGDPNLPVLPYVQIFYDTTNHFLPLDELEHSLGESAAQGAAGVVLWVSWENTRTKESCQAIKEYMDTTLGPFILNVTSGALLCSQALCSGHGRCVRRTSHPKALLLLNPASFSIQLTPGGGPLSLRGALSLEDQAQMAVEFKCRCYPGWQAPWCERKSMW
Method: Five boys diagnosed with acute lymphoblastic leukemia (ALL) before starting treatment were included in the study. These patients were diagnosed at the Department of Pediatric Hematology and Oncology at Jurasz University Hospital in Bydgoszcz, Poland, between 2019 and 2020. Venous blood samples were collected from each child while fasting and placed into serum tubes supplied by Becton Dickinson, located in Franklin Lakes, NJ, USA. The blood samples were left to clot at room temperature for 30 min, then centrifuged for 20 min at 2000× g, also at room temperature. The samples were then collected and stored at a temperature of −80 °C until the time of analysis. The study was approved by the local Bioethics Committee (approval number 608/2019) and was conducted in accordance with the Declaration of Helsinki.
The inhibition of human serum hyaluronidase was assessed using modified methods. The activity of the compounds or extracts was determined by precipitating non-hydrolyzed hyaluronic acid with cetyltrimethylammonium bromide (CTAB). […] The intensity of the complex formation was measured at a wavelength of 600 nm. […] The inhibition of hyaluronidase was calculated using a specific equation, with aescin used as a standard. […]
as §1, §2, §3

[13] = phenolic acid and eleutheroside standards (Table 6)
[14] = Homo sapiens, A-375, A375, 24 h

Compound: COc1cc(C2OCC3C(c4cc(OC)c(O[C@@H]5O[C@H](CO)[C@@H](O)[C@H](O)[C@H]5O)c(OC)c4)OCC23)cc(OC)c1O[C@@H]1O[C@H](CO)[C@@H](O)[C@H](O)[C@H]1O (single isomer, unassigned; (-)) [Eleutheroside E, (−)-siringaresinol 4,4″-O-β-D-diglucoside]
IC50 bHYAL [1, 13]: no activity | IC50 mTYR [2]: no activity

IC50 ABTS [3]: 2.27 ± 0.07 ^a µg/mL | IC50 DPPH [4]: 24.93 ± 0.28 ^ab µg/mL
Compound: O=C1O[C@H]([C@@H](O)CO)C(O)=C1O [AA, ascorbic acid]

Compound: COc1ccc(O)c(C(C)(C)C)c1 [BHA, Butylated hydroxyanisole]
IC50 ABTS [3]: 2.35 ± 0.11 ^a µg/mL | IC50 DPPH [4]: 62.52 ± 4.13 ^ab µg/mL

IC50 mTYR [2]: 56.22 ± 0.67 ^a µg/mL
Compound: O=C(O)/C=C/c1ccc(O)c(O)c1 [Caffeic acid]

IC50 mTYR [2]: 107.52 ± 3.46 ^ab µg/mL
Compound: O=C(/C=C/c1ccc(O)c(O)c1)O[C@@H]1C[C@](O)(C(=O)O)C[C@@H](O)[C@H]1O [Chlorogenic acid]

IC50 ([5]; Homo sapiens, SK-MEL-30, 24 h, read-out: IC50 (50% of maximal inhibition of viability)): 1520 nM | IC90 ([5]; Homo sapiens, SK-MEL-30, 24 h, read-out: IC90 (90% of maximal inhibition of viability)): 9630 nM | IC50 [6, 14]: 330 nM | IC90 [6, 14]: 1190 nM | IC50 ([7]; Homo sapiens, UACC-647, 24 h): 1160 nM | IC90 ([7]; Homo sapiens, UACC-647, 24 h): 3760 nM
Compound: COc1cccc2c1C(=O)c1c(O)c3c(c(O)c1C2=O)C[C@@](O)(C(=O)CO)C[C@@H]3O[C@H]1C[C@H](N)[C@H](O)[C@H](C)O1 [DOX, doxorubicin]
maximal drop of viability ([5]; SK-MEL-30): 81.87% | IC10 (10% of maximal inhibition of viability) ([5]; SK-MEL-30, 24 h): 240 nM | maximal level of inhibition of viability ([6]; A375): 96.38% | IC10 ([6]; A375, 24 h): 90 nM | inhibition of viability ([6]; A375, DOX alone at IC90): 96% | maximal suppression of viability ([7]; UACC-647): 39.15% | IC10 ([7]; UACC-647, 24 h): 360 nM

Compound: O=C(O)CN(CCN(CC(=O)O)CC(=O)O)CC(=O)O [EDTA, ethylenediaminetetraacetic acid]
Ferrozine (iron(II) chelation) [8]: 98.9 ± 0.01%

Compound: COc1cc(/C=C/CO)cc(OC)c1O[C@@H]1O[C@H](CO)[C@@H](O)[C@H](O)[C@H]1O [Eleutheroside B, syringin 4-β-D-glucoside]
IC50 bHYAL [1, 13]: no activity | IC50 mTYR [2]: no activity

Compound: O=C(O)c1ccc(O)c(O)c1 [Protocatechuic acid]
IC50 mTYR [2]: 134.57 ± 3.46 ^b µg/mL

IC50 ABTS [3]: 2.85 ± 0.18 ^ab µg/mL | IC50 DPPH [4]: 13.68 ± 3.53 ^a µg/mL
Compound: Cc1c(C)c2c(c(C)c1O)CCC(C)(C(=O)O)O2 (centres unmarked) [TROLOX, 6-hydroxy-2,5,7,8-tetramethylchroman-2-carboxylic acid]

Compound: O=C(/C=C/c1ccc(O)c(O)c1)O[C@H](Cc1ccc(O)c(O)c1)C(=O)O [rosmarinic acid]
IC50 [9]: 545000 nM

Compound: O=C1OCc2c1c(-c1ccc3c(c1)OCO3)c1cc3c(cc1c2O)OCO3 [taiwanin E]
IC50 [10]: 1470 nM

Compound: Eleutheroside E1
IC50 bHYAL [1, 13]: no activity | IC50 mTYR [2]: no activity

hHYAL inhibition, mean group value [12]: 63.8% | IC50 bHYAL ([1]; fractions of the 75% methanol extract and control (Table 5)): 388.8 ± 1.81 ^b µg/mL
Compound: aescin
inhibition of human hyaluronidase activity, range [11]: 20.00–47.37% | inhibition of hyaluronidase activity, mean group value [11]: 40%
